Assay results reported in patent publication US12723063B2, “GIPR-agonist compounds” (Eli Lilly and Company, priority 2019, dated 2026).
*1 amine or outer side, *2 acyl side, *3 side chain or, on linkers, in order; H or OH if unused. Where a SMILES comes first, the peptide text is derived from it. Side-chain parts run from the residue outwards. [ ]: non-standard residue; d: D form. The star is where a group is joined. C20 diacid = O=C(O)CCCCCCCCCCCCCCCCCCC(=O)*; C18 diacid = O=C(O)CCCCCCCCCCCCCCCCC(=O)*; γGlu = O=C(O)[C@H](CCC(=O)[*:2])N[*:1]; αMeY = C[C@](N)(Cc1ccc(O)cc1)C(=O)O; αMeF = C[C@](N)(Cc1ccccc1)C(=O)O; 4Pal = N[C@@H](Cc1ccncc1)C(=O)O; αMeL = CC(C)C[C@](C)(N)C(=O)O; Iva = CC[C@](C)(N)C(=O)O; AEEA = NCCOCCOCC(=O)O; Aib = CC(C)(N)C(=O)O

How the values were obtained:
[1] = target: T1, human GLP-1R (Homo sapiens, UniProt P43220); experiment: [125I]-GLP-1 binding, SPA with WGA beads, 0.1% bacitracin; conditions: geometric mean, read-out: hGLP1R Ki
T1 construct: expressed in transfected cells; crude membranes
T1 sequence (P43220 24-463): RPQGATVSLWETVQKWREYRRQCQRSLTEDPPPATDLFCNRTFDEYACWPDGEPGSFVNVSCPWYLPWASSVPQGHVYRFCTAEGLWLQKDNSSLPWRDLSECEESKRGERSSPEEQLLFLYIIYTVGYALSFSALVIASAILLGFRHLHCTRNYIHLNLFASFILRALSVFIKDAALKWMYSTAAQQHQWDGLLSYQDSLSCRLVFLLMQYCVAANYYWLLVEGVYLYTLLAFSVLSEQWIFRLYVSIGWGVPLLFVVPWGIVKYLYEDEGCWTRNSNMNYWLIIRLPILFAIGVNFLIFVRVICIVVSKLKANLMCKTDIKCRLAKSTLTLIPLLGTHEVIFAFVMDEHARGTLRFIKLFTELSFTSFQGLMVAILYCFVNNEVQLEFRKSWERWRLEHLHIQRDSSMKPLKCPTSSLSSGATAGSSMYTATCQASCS
Summary of the method: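 Binding buffer was 25 mM HEPES pH 7.4 with 2.5 mM CaCl2, 1 mM MgCl2, 0.1% (w/v) bacitracin, 0.003% Tween-20 and EDTA-free protease inhibitors. Four-parameter regression gave IC50, converted to Ki (geometric mean, SEM, n independent days).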

[2] = target: T2, human GIPR (Homo sapiens, UniProt P48546); experiment: [125I]-GIP binding, SPA with WGA beads, 0.1% bacitracin; conditions: geometric mean, read-out: hGIPR Ki
T2 construct: expressed in transfected cells; crude membranes
T2 sequence (P48546 22-466): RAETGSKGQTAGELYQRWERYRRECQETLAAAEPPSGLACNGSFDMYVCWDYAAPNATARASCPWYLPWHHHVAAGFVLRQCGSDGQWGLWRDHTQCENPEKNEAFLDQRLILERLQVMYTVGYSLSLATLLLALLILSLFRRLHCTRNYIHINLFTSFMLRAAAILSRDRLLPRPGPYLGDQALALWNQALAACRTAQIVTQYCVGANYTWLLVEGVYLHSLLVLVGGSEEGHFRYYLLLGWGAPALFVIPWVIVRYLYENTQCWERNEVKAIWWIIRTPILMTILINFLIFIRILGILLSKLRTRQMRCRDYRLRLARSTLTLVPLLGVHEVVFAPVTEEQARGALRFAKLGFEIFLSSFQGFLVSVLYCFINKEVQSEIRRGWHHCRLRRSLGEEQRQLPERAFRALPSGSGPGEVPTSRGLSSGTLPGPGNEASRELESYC
Summary of the method: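 Ki values are geometric means (SEM, n independent days), derived from four-parameter nonlinear regression of IC50. Membranes came from hGIPR-expressing CHO cells.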

[3] = target: T3, human GcgR (Homo sapiens, UniProt P47871); experiment: [125I]-Glucagon binding, SPA with WGA beads, 0.1% bacitracin; conditions: geometric mean, read-out: hGcgR Ki
T3 construct: expressed in transfected cells; crude membranes
T3 sequence (P47871 26-477): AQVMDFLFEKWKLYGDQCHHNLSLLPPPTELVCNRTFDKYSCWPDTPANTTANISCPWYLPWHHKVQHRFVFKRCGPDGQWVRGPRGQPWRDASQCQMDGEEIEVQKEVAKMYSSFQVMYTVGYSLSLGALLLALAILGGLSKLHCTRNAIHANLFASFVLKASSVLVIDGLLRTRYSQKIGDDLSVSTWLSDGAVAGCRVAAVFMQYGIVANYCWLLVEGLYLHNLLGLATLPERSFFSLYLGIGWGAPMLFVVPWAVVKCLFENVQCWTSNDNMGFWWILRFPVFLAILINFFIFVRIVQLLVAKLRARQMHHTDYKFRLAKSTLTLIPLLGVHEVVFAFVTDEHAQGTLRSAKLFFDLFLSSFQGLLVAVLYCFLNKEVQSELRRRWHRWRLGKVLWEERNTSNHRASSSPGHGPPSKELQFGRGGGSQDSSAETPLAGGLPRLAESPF
Summary of the method: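 SPA competition binding with WGA beads on crude membranes from HEK293 cells stably expressing hGcgR. Buffer: 25 mM HEPES pH 7.4, 2.5 mM CaCl2, 1 mM MgCl2, 0.1% bacitracin, 0.003% Tween-20; 10-point 3-fold dilutions, NSB with 1 μM Gcg.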

Compound	Ki [1]	Ki [2]	Ki [3]
CC[C@H](C)[C@H](NC(=O)[C@H](CCCCN)NC(=O)[C@H](CC(=O)O)NC(=O)[C@H](CC(C)C)NC(=O)[C@H](CC(C)C)NC(=O)[C@@H](NC(=O)[C@H](CO)NC(=O)[C@H](Cc1ccc(O)cc1)NC(=O)[C@H](CC(=O)O)NC(=O)[C@H](CO)NC(=O)[C@@H](NC(=O)[C@H](Cc1ccccc1)NC(=O)[C@@H](NC(=O)CNC(=O)[C@H](CCC(=O)O)NC(=O)[C@@H](C)NC(=O)[C@@H](N)Cc1ccc(O)cc1)[C@@H](C)O)[C@@H](C)CC)[C@@H](C)CC)C(=O)N[C@@H](C)C(=O)N[C@@H](CCC(N)=O)C(=O)NC(C)(C)C(=O)N[C@@H](CC(=O)O)C(=O)N[C@@H](Cc1ccccc1)C(=O)N[C@H](C(=O)N[C@@H](CC(N)=O)C(=O)N[C@@H](Cc1c[nH]c2ccccc12)C(=O)N[C@@H](CCCCNC(=O)COCCOCCNC(=O)COCCOCCNC(=O)CC[C@H](NC(=O)CCCCCCCCCCCCCCCCC(=O)O)C(=O)O)C(=O)N[C@@H](CC(C)C)C(=O)N[C@@H](C)C(=O)N[C@@H](CCC(N)=O)C(=O)NCC(=O)N1CCC[C@H]1C(=O)N[C@@H](CO)C(=O)N[C@@H](CO)C(=O)NCC(=O)N[C@@H](C)C(=O)N1CCC[C@H]1C(=O)N1CCC[C@H]1C(=O)N1CCC[C@H]1C(=O)N[C@@H](CO)C(N)=O)C(C)C [Example 93] (H-Y[dA]EGTFISDYSILLDKIAQ[Aib]DFVNWK([AEEA-AEEA-γGlu-C18 diacid])LAQGPSSGAPPPS-NH2)	> 909 nM	0.043 nM	> 959 nM
CC[C@H](C)[C@H](NC(=O)[C@H](CO)NC(=O)[C@H](Cc1ccc(O)cc1)NC(=O)[C@H](CC(=O)O)NC(=O)[C@H](CO)NC(=O)[C@@H](NC(=O)[C@](C)(CC)NC(=O)[C@@H](NC(=O)CNC(=O)[C@H](CCC(=O)O)NC(=O)C(C)(C)NC(=O)[C@@H](N)Cc1ccc(O)cc1)[C@@H](C)O)[C@@H](C)CC)C(=O)N[C@@](C)(CC(C)C)C(=O)N[C@@H](CC(C)C)C(=O)N[C@@H](CC(=O)O)C(=O)N[C@@H](CCCCN)C(=O)N[C@@H](CCCCNC(=O)COCCOCCNC(=O)COCCOCCNC(=O)CC[C@H](NC(=O)CCCCCCCCCCCCCCCCCCC(=O)O)C(=O)O)C(=O)N[C@@H](Cc1c[nH]cn1)C(=O)N[C@@H](CCC(N)=O)C(=O)NC(C)(C)C(=O)N[C@@H](CC(=O)O)C(=O)N[C@@H](Cc1ccccc1)C(=O)N[C@H](C(=O)N[C@@H](CCC(=O)O)C(=O)N[C@@H](Cc1ccncc1)C(=O)N[C@@H](CC(C)C)C(=O)N[C@@H](CC(C)C)C(=O)N[C@@H](CCC(=O)O)C(=O)N[C@@H](C)C(=O)NCC(=O)N1CCC[C@H]1C(=O)N[C@@H](CO)C(=O)N[C@@H](CO)C(=O)NCC(=O)N[C@@H](C)C(=O)N1CCC[C@H]1C(=O)N1CCC[C@H]1C(=O)N1CCC[C@H]1C(=O)N[C@@H](CO)C(N)=O)C(C)C [Example 88] (H-Y[Aib]EGT[Iva]ISDYSI[αMeL]LDKK([AEEA-AEEA-γGlu-C20 diacid])HQ[Aib]DFVE[4Pal]LLEAGPSSGAPPPS-NH2)	261 nM	0.083 nM	788 nM
CC[C@H](C)[C@H](NC(=O)[C@H](CO)NC(=O)[C@H](Cc1ccc(O)cc1)NC(=O)[C@H](CC(=O)O)NC(=O)[C@H](CO)NC(=O)[C@@H](NC(=O)[C@H](Cc1ccccc1)NC(=O)[C@@H](NC(=O)CNC(=O)[C@H](CCC(=O)O)NC(=O)[C@@H](C)NC(=O)[C@@H](N)Cc1ccc(O)cc1)[C@@H](C)O)[C@@H](C)CC)C(=O)N[C@@H](CC(C)C)C(=O)N[C@@H](CC(C)C)C(=O)N[C@@H](CC(=O)O)C(=O)N[C@@H](CCCCN)C(=O)N[C@@H](CCCCNC(=O)COCCOCCNC(=O)COCCOCCNC(=O)CC[C@H](NC(=O)CCCCCCCCCCCCCCCCC(=O)O)C(=O)O)C(=O)N[C@@H](C)C(=O)N[C@@H](CCC(N)=O)C(=O)NC(C)(C)C(=O)N[C@@H](CCC(=O)O)C(=O)N[C@@H](Cc1ccccc1)C(=O)N[C@H](C(=O)N[C@@H](CC(N)=O)C(=O)N[C@@H](Cc1c[nH]c2ccccc12)C(=O)N[C@@H](CC(C)C)C(=O)N[C@@H](CC(C)C)C(=O)N[C@@H](CCC(=O)O)C(=O)NCC(=O)NCC(=O)N1CCC[C@H]1C(=O)N[C@@H](CO)C(=O)N[C@@H](CO)C(=O)NCC(=O)N[C@@H](C)C(=O)N1CCC[C@H]1C(=O)N1CCC[C@H]1C(=O)N1CCC[C@H]1C(=O)N[C@@H](CO)C(N)=O)C(C)C [Example 28] (H-Y[dA]EGTFISDYSILLDKK([AEEA-AEEA-γGlu-C18 diacid])AQ[Aib]EFVNWLLEGGPSSGAPPPS-NH2)	6.46 nM	0.0732 nM	86.8 nM
CC[C@H](C)[C@H](NC(=O)[C@H](CO)NC(=O)[C@H](Cc1ccc(O)cc1)NC(=O)[C@H](CC(=O)O)NC(=O)[C@H](CO)NC(=O)[C@@H](NC(=O)[C@H](Cc1ccccc1)NC(=O)[C@@H](NC(=O)CNC(=O)[C@H](CCC(=O)O)NC(=O)[C@@H](C)NC(=O)[C@@H](N)Cc1ccc(O)cc1)[C@@H](C)O)[C@@H](C)CC)C(=O)N[C@@H](CC(C)C)C(=O)N[C@@H](CC(C)C)C(=O)N[C@@H](CC(=O)O)C(=O)N[C@@H](CCCCN)C(=O)N[C@@H](CCCCNC(=O)COCCOCCNC(=O)COCCOCCNC(=O)CC[C@H](NC(=O)CCCCCCCCCCCCCCCCCCC(=O)O)C(=O)O)C(=O)N[C@@H](C)C(=O)N[C@@H](CCC(N)=O)C(=O)N[C@@H](CCC(N)=O)C(=O)N[C@@H](CC(=O)O)C(=O)N[C@@H](Cc1ccccc1)C(=O)N[C@H](C(=O)N[C@@H](CC(N)=O)C(=O)N[C@@H](Cc1c[nH]c2ccccc12)C(=O)N[C@@H](CC(C)C)C(=O)N[C@@H](CC(C)C)C(=O)N[C@@H](C)C(=O)NCC(=O)NCC(=O)N1CCC[C@H]1C(=O)N[C@@H](CO)C(=O)N[C@@H](CO)C(=O)NCC(=O)N[C@@H](C)C(=O)N1CCC[C@H]1C(=O)N1CCC[C@H]1C(=O)N1CCC[C@H]1C(=O)N[C@@H](CO)C(N)=O)C(C)C [Example 12] (H-Y[dA]EGTFISDYSILLDKK([AEEA-AEEA-γGlu-C20 diacid])AQQDFVNWLLAGGPSSGAPPPS-NH2)	46.8 nM	0.0876 nM	134 nM
CC[C@H](C)[C@H](NC(=O)[C@H](CO)NC(=O)[C@H](Cc1ccc(O)cc1)NC(=O)[C@H](CC(=O)O)NC(=O)[C@H](CO)NC(=O)[C@@H](NC(=O)[C@](C)(Cc1ccccc1)NC(=O)[C@@H](NC(=O)CNC(=O)[C@H](CCC(=O)O)NC(=O)C(C)(C)NC(=O)[C@@H](N)Cc1ccc(O)cc1)[C@@H](C)O)[C@@H](C)CC)C(=O)N[C@@H](C)C(=O)N[C@@H](CC(C)C)C(=O)N[C@@H](CC(=O)O)C(=O)N[C@@H](CCCCN)C(=O)N[C@@H](CCCCNC(=O)COCCOCCNC(=O)COCCOCCNC(=O)CC[C@H](NC(=O)CCCCCCCCCCCCCCCCC(=O)O)C(=O)O)C(=O)N[C@@H](Cc1c[nH]cn1)C(=O)N[C@@H](CCC(N)=O)C(=O)NC(C)(C)C(=O)N[C@@H](CC(=O)O)C(=O)N[C@@H](Cc1ccccc1)C(=O)N[C@H](C(=O)N[C@@H](CCC(=O)O)C(=O)N[C@@H](Cc1ccncc1)C(=O)N[C@@H](CC(C)C)C(=O)N[C@@H](CC(C)C)C(=O)N[C@@H](C)C(=O)NCC(=O)NCC(=O)N1CCC[C@H]1C(=O)N[C@@H](CO)C(=O)N[C@@H](CO)C(=O)NCC(=O)N[C@@H](C)C(=O)N1CCC[C@H]1C(=O)N1CCC[C@H]1C(=O)N1CCC[C@H]1C(=O)N[C@@H](CO)C(N)=O)C(C)C [Example 23] (H-Y[Aib]EGT[αMeF]ISDYSIALDKK([AEEA-AEEA-γGlu-C18 diacid])HQ[Aib]DFVE[4Pal]LLAGGPSSGAPPPS-NH2)	251 nM	0.0341 nM	323 nM
CC[C@H](C)[C@H](NC(=O)[C@H](Cc1ccccc1)NC(=O)[C@@H](NC(=O)CNC(=O)[C@H](CCC(=O)O)NC(=O)C(C)(C)NC(=O)[C@@H](N)Cc1ccc(O)cc1)[C@@H](C)O)C(=O)N[C@@H](CO)C(=O)N[C@@H](CC(=O)O)C(=O)N[C@@H](Cc1ccc(O)cc1)C(=O)N[C@@H](CO)C(=O)N[C@H](C(=O)N[C@@](C)(CC(C)C)C(=O)N[C@@H](CC(C)C)C(=O)N[C@@H](CC(=O)O)C(=O)N[C@@H](CCCCN)C(=O)N[C@@H](CCCCNC(=O)COCCOCCNC(=O)COCCOCCNC(=O)CC[C@H](NC(=O)CCCCCCCCCCCCCCCCCCC(=O)O)C(=O)O)C(=O)N[C@@H](Cc1c[nH]cn1)C(=O)N[C@@H](CCC(N)=O)C(=O)NC(C)(C)C(=O)N[C@@H](CC(=O)O)C(=O)N[C@@H](Cc1ccccc1)C(=O)N[C@H](C(=O)N[C@@H](CCC(=O)O)C(=O)N[C@@](C)(Cc1ccc(O)cc1)C(=O)N[C@@H](CC(C)C)C(=O)N[C@@H](CC(C)C)C(=O)N[C@@H](CCC(=O)O)C(=O)NCC(=O)NCC(=O)N1CCC[C@H]1C(=O)N[C@@H](CO)C(=O)N[C@@H](CO)C(=O)NCC(=O)N[C@@H](C)C(=O)N1CCC[C@H]1C(=O)N1CCC[C@H]1C(=O)N1CCC[C@H]1C(=O)N[C@@H](CO)C(N)=O)C(C)C)[C@@H](C)CC [Example 91] (H-Y[Aib]EGTFISDYSI[αMeL]LDKK([AEEA-AEEA-γGlu-C20 diacid])HQ[Aib]DFVE[αMeY]LLEGGPSSGAPPPS-NH2)	37.4 nM	0.122 nM	54.4 nM
